{"source": "patent US9359308B2", "about": "“Pyrazine kinase inhibitors” (Portola Pharmaceuticals, Inc., priority 2011, dated 2016)", "biological_target": "T1, full length active recombinant SYK enzyme (Homo sapiens, UniProt P43405)", "T1 construct": "full length active recombinant SYK enzyme (Millipore, Calif.); purchased Millipore", "assay": "Inhibition of Syk tyrosine phosphorylation activity (LANCE TR-FRET kinase assay)", "format": "biochemical", "settings": "activity in the Syk assays, class symbols", "summary_of_the_method": "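1 nM full-length active recombinant SYK phosphorylated 550 nM biotin-DEEDYESP-OH with 100 μM ATP in 50 mM Tris pH 7.5, 5 mM MgCl2, 1 mM DTT and 3% DMSO for 1 h at room temperature. After EDTA quench, Eu-anti-phosphotyrosine/SA-APC TR-FRET was read after 1 h. IC50s came from non-linear regression.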", "note": "pIC50: −log10 of the molar value.", "data": [{"smiles": "CC[C@@H](Nc1cnc(C(N)=O)c(Nc2ccc(-c3ncco3)cc2)n1)C(N)=O", "note": "[Example 446]", "values": [{"measurement": "pIC50", "result": "8.00 to 9.00"}]}, {"smiles": "NC(=O)c1ncc(N[C@H]2CCCNC2)nc1Nc1cnc2ccccc2c1", "note": "[Example 57, (S)-5-(piperidin-3-ylamino)-3-(quinolin-3-ylamino)pyrazine-2-carboxamide]", "values": [{"measurement": "pIC50", "result": "6.00 to 7.00"}]}, {"smiles": "NC(=O)c1ncc(N[C@@H]2CCCC[C@@H]2N)nc1Nc1cc(CO)ns1", "note": "[Example 250, 5-((1R,2S)-2-aminocyclohexylamino)-3-(3-(hydroxymethyl)isothiazol-5-ylamino)pyrazine-2-carboxamide]", "values": [{"measurement": "pIC50", "result": "8.00 to 9.00"}]}, {"smiles": "CC(C)C[C@@H](Nc1cnc(C(N)=O)c(Nc2cncc(F)c2)n1)C(N)=O", "note": "[Example 70, (R)-5-(1-amino-4-methyl-1-oxopentan-2-ylamino)-3-(5-fluoropyridin-3-ylamino)pyrazine-2-carboxamide]", "values": [{"measurement": "pIC50", "result": "7.00 to 8.00"}]}, {"smiles": "CC(C)[C@@H](Nc1cnc(C(N)=O)c(Nc2cnc3ccc(F)cc3c2)n1)C(N)=O", "note": "[Example 200, (R)-5-(1-amino-3-methyl-1-oxobutan-2-ylamino)-3-(6-fluoroquinolin-3-ylamino)pyrazine-2-carboxamide]", "values": [{"measurement": "pIC50", "result": "8.00 to 9.00"}]}, {"smiles": "CC[C@@H](Nc1cnc(C(N)=O)c(Nc2ccc3nc(N(C)C)oc3c2)n1)C(N)=O", "note": "[Example 318, (R)-5-(1-amino-1-oxobutan-2-ylamino)-3-(2-(dimethylamino)benzo[d]oxazol-6-ylamino)pyrazine-2-carboxamide]", "values": [{"measurement": "pIC50", "result": "7.00 to 8.00"}]}, {"smiles": "CC[C@@H](Nc1cnc(C(N)=O)c(Nc2cncc(F)c2)n1)C(N)=O", "note": "[Example 182, (R)-5-(1-amino-1-oxobutan-2-ylamino)-3-(5-fluoropyridin-3-ylamino)pyrazine-2-carboxamide]", "values": [{"measurement": "pIC50", "result": "7.00 to 8.00"}]}, {"smiles": "CC[C@@H](Nc1cnc(C(N)=O)c(Nc2snc3sccc23)n1)C(N)=O", "note": "[Example 271, (R)-5-(1-amino-1-oxobutan-2-ylamino)-3-(thieno[2,3-c]isothiazol-3-ylamino)pyrazine-2-carboxamide]", "values": [{"measurement": "pIC50", "result": "> 9.00"}]}, {"smiles": "CC(C)(C)C[C@@H](Nc1cnc(C(N)=O)c(Nc2cnn(C3CC3)c2)n1)C(N)=O", "note": "[Example 259, (R)-5-(1-amino-4,4-dimethyl-1-oxopentan-2-ylamino)-3-(1-cyclopropyl-1H-pyrazol-4-ylamino)pyrazine-2-carboxamide]", "values": [{"measurement": "pIC50", "result": "7.00 to 8.00"}]}, {"smiles": "Cc1cc(Nc2nc(N[C@H](CC3CC3)C(N)=O)c(Cl)nc2C(N)=O)sn1", "note": "[Example 136, (R)-5-((1-amino-3-cyclopropyl-1-oxopropan-2-yl)amino)-6-chloro-3-((3-methylisothiazol-5-yl)amino)pyrazine-2-carboxamide]", "values": [{"measurement": "pIC50", "result": "7.00 to 8.00"}]}, {"smiles": "NC(=O)c1ncc(N[C@@H]2CCCC[C@@H]2N)nc1NC1CCCC1", "note": "[Example 36, 5-((1R,2S)-2-aminocyclohexylamino)-3-(cyclopentylamino)pyrazine-2-carboxamide]", "values": [{"measurement": "pIC50", "result": "< 6.00"}]}, {"smiles": "CC[C@@H](Nc1cnc(C(N)=O)c(Nc2csc3ncccc23)n1)C(N)=O", "note": "[Example 75, (R)-5-(1-amino-1-oxobutan-2-ylamino)-3-(thieno[2,3-b]pyridin-3-ylamino)pyrazine-2-carboxamide]", "values": [{"measurement": "pIC50", "result": "8.00 to 9.00"}]}, {"smiles": "Cc1cc(Nc2nc(N[C@H](CC(F)(F)F)C(N)=O)cnc2C(N)=O)sn1", "note": "[Example 398, (R)-5-(1-amino-4,4,4-trifluoro-1-oxobutan-2-ylamino)-3-(3-methylisothiazol-5-ylamino)pyrazine-2-carboxamide]", "values": [{"measurement": "pIC50", "result": "8.00 to 9.00"}]}, {"smiles": "COc1ccc(Nc2nc(N[C@@H]3CCCC[C@@H]3N)cnc2C(N)=O)cc1OC", "note": "[Example 142, 5-((1R,2S)-2-aminocyclohexylamino)-3-(3,4-dimethoxyphenylamino)pyrazine-2-carboxamide]", "values": [{"measurement": "pIC50", "result": "8.00 to 9.00"}]}, {"smiles": "CC[C@@H](Nc1cnc(C(N)=O)c(Nc2cc(C)ccn2)n1)C(N)=O", "note": "[Example 320, (R)-5-(1-amino-1-oxobutan-2-ylamino)-3-(4-methylpyridin-2-ylamino)pyrazine-2-carboxamide]", "values": [{"measurement": "pIC50", "result": "< 6.00"}]}]}
